Measured values from paper PMC3928307, “Long-Term Activation upon Brief Exposure to Xanomleline Is Unique to M1 and M4 Subtypes of Muscarinic Acetylcholine Receptors” (PLoS ONE, 2014).

What was measured:
hM4 muscarinic receptor = target: T1, hM4 muscarinic receptor (Homo sapiens, UniProt P08173); assay: cell-based
T1 construct: gene CHRM4
T1 sequence (P08173 1-479): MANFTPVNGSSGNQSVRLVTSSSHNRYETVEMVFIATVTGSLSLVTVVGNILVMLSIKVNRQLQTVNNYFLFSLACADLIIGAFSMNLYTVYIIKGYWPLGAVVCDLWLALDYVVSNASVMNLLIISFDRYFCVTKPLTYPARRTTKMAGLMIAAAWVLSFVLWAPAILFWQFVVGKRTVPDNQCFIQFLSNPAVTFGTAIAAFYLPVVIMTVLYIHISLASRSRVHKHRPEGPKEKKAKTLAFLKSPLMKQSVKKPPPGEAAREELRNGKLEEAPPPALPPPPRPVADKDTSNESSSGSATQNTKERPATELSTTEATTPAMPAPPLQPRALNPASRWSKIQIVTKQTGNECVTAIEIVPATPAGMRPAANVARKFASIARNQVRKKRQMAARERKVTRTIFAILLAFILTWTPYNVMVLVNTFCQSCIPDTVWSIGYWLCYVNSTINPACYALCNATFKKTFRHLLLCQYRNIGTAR

hM3 muscarinic receptor = target: T2, hM3 muscarinic receptor (Homo sapiens, UniProt P20309); assay: Fura-2 intracellular calcium microfluorometry, CHO cells; format: cell-based; settings: read-out: oxotremorine / pEC50 (converted)
T2 construct: gene CHRM3; full-length receptor stably expressed in CHO cells (Missouri S&T cDNA Resource Center)
Source text: Fura-2 intracellular calcium microfluorometry, CHO cells on hM3 muscarinic receptor

hM1 muscarinic receptor = target: T3, hM1 muscarinic receptor (Homo sapiens, UniProt P11229); assay: cell-based
T3 construct: gene CHRM1
T3 sequence (P11229 1-460): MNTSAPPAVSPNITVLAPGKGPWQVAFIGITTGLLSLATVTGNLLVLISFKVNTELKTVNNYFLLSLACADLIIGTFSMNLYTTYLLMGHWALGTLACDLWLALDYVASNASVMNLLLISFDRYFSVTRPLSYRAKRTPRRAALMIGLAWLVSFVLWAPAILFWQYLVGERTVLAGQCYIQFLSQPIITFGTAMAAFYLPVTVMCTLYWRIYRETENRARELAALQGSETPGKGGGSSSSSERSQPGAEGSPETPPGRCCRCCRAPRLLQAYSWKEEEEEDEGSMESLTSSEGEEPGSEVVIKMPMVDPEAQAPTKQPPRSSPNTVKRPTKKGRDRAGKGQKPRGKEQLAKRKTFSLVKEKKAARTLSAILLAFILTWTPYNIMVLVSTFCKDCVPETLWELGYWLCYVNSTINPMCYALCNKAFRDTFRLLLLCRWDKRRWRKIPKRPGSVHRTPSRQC
Source text: Fura-2 intracellular calcium microfluorometry, CHO cells on hM1 muscarinic receptor

hM2 muscarinic receptor = target: T4, hM2 muscarinic receptor (Homo sapiens, UniProt P08172); assay: Fura-2 intracellular calcium microfluorometry, CHO cells; format: cell-based; settings: read-out: oxotremorine / pEC50 (converted)
T4 construct: gene CHRM2; full-length receptor stably expressed in CHO cells; human G16 transiently co-transfected for calcium assay
T4 sequence (P08172 1-466): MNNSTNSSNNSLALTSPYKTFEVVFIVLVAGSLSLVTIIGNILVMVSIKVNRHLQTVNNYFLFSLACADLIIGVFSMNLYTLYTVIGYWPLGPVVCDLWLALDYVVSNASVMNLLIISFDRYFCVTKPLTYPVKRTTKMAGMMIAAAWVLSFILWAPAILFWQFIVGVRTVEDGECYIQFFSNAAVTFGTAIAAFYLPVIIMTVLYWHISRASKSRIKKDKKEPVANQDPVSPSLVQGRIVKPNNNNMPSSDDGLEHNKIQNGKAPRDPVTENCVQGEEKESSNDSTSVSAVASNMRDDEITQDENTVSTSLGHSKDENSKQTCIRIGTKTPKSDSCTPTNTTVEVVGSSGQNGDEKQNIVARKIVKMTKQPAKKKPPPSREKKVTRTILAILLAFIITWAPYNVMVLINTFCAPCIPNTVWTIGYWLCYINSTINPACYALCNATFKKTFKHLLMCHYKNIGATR
Source text: Fura-2 intracellular calcium microfluorometry, CHO cells on hM2 muscarinic receptor

hM5 muscarinic receptor = target: T5, hM5 muscarinic receptor (Homo sapiens, UniProt P08912); assay: as above; format: cell-based; settings: read-out: oxotremorine / pEC50 (converted)
T5 construct: gene CHRM5; full-length receptor stably expressed in CHO cells (Missouri S&T cDNA Resource Center)
T5 sequence (P08912 1-532): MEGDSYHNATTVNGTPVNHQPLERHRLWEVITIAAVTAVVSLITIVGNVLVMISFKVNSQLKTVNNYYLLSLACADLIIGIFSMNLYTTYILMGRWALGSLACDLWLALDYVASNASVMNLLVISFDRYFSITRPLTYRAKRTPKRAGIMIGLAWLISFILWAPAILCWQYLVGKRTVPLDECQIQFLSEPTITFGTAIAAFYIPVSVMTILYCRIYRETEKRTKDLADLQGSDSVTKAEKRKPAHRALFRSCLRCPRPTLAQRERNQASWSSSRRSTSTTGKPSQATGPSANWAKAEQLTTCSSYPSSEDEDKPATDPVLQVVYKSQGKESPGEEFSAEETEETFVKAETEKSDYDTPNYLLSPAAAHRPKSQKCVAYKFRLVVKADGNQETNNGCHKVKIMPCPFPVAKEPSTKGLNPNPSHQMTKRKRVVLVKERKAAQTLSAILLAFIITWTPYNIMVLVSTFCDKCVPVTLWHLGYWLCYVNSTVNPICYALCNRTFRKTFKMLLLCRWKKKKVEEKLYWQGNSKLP
Source text: Fura-2 intracellular calcium microfluorometry, CHO cells on hM5 muscarinic receptor

T2 sequence (P20309 whole entry): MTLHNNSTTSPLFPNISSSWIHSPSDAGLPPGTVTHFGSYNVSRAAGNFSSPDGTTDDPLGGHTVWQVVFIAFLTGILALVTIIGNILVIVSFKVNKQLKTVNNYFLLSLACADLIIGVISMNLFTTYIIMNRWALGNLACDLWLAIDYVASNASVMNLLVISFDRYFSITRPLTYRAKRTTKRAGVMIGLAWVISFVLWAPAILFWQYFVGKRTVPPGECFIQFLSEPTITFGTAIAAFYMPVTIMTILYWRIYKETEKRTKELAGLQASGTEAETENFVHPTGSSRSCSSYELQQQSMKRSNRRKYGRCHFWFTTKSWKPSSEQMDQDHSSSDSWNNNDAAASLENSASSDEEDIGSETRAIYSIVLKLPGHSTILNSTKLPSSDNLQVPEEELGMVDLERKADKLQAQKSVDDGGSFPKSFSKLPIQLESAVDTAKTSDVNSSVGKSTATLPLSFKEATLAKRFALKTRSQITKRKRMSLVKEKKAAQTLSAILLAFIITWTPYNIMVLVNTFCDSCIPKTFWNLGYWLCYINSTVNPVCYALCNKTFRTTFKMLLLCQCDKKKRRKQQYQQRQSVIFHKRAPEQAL

## O=C1CCCN1CC#CCN1CCCC1 [oxotremorine]
hM4 muscarinic receptor
  EC50: 0.0676 µM
hM3 muscarinic receptor
  EC50: 0.0468 µM
hM1 muscarinic receptor
  EC50: 0.0468 µM
hM2 muscarinic receptor
  EC50: 0.0646 µM
hM5 muscarinic receptor
  EC50: 0.0513 µM
